Laboratory results from patent US20220280515A1, “Ophthalmic Composition for Promoting Tear Secretion” (Rohto Pharmaceutical Co., Ltd., priority 2019, published 2022).
Where a name gives a salt, the structure may show the parent alone.

What was measured:
normal rabbits = assay: Tear secretion promoting action by single ophthalmic administration, Schirmer's test paper, normal rabbits; type: in vivo, Japanese white rabbits; settings: 0.05% solution in PBS, 50 μL/eye single instillation, 15 minutes later, Student's t test
Experimental: The tear secretion promoting action of delgocitinib was evaluated using normal rabbits. Delgocitinib was dissolved and stirred in PBS (Kohjin Bio Co., Ltd.) to prepare a 0.05% delgocitinib solution. Male Japanese white rabbits (Oriental Yeast Co., Ltd.) were placed in retention tubes, and the PBS or the 0.05% delgocitinib solution was instilled at a dose of […]. Fifteen minutes later, a Schirmer's test paper was inserted into conjunctival sac on the corner of the eye. One minute later, the test paper was pulled out, and the length of the wet part of the test paper was measured, which was used as a tear volume.

normal mice = assay: Tear secretion promoting action by single ophthalmic administration, phenol red thread, normal mice; type: in vivo, C57BL/6J mice; settings: 3 μL/eye single instillation, 15 minutes later
Experimental: The tear secretion promoting action of delgocitinib was evaluated using normal mice. Delgocitinib was dissolved and stirred in PBS (Kohjin Bio Co., Ltd.) to prepare delgocitinib solutions at each concentration (0.0125%, 0.05%, and 0.2%). Female C57BL/6J mice (Japan SLC, Inc.) were retained, and the PBS or the delgocitinib solutions at each concentration were instilled at a dose of 3 μL/eye. Fifteen minutes later, a phenol red thread (ZONE-QUICK, AYUMI Pharmaceutical Corporation) was inserted into conjunctival sac on the corner of the eye. Fifteen seconds later, the phenol red thread was pulled out, the length of the wet part of the phenol red thread was measured, and this measured value was used as the tear volume.

normal rats = assay: Tear secretion promoting action by single ophthalmic administration, Schirmer's test paper, normal rats; type: in vivo, Sprague-Dawley (SD) rats; settings: 5 μL/eye single instillation (DIQUAS 3%, 3% pilocarpine, 0.05% delgocitinib), 15 minutes later, Mann-whitney U test
Experimental: (§1) The tear secretion promoting action of delgocitinib was evaluated using normal rats and lacrimal gland excision rats.
(§2) As a test substance, a 0.05% delgocitinib solution (delgocitinib as the active ingredient and sodium chloride, potassium chloride, sodium hydroxide, boric acid, and chlorhexidine gluconate as additives were combined, dissolved and stirred in purified water) was prepared. As a control substance, pilocarpine hydrochloride (Tokyo Chemical Industry Co., Ltd.) was dissolved and stirred in saline (OTSUKA NORMAL SALINE, Otsuka Pharmaceutical Factory, Inc.) to prepare a 3% pilocarpine solution.
(§3) Into normal male Sprague-Dawley (SD) rats (Japan SLC, Inc.) and SD rats whose main and accessory lacrimal glands had been excised 1 week earlier, saline, the DIQUAS ophthalmic solution 3% (Santen Pharmaceutical Co., Ltd.), the 3% pilocarpine solution, or the 0.05% delgocitinib solution was instilled at a dose of 5 μL/eye. Ten minutes later, anesthesia was induced using somnopentyl (Kyoritsu Seiyaku Corporation), and another 5 minutes later, a Schirmer's test paper was inserted into conjunctival sac on the corner of the eye. One minute later, the test paper was pulled out, and the length of the wet part of the test paper was measured, and this measured value was used as a tear volume.

[1] = system: lacrimal gland excised rats; assay: Tear secretion promoting action by single ophthalmic administration, Schirmer's test paper, lacrimal gland excised rats; type: in vivo, Sprague-Dawley (SD) rats; settings: rats with main and accessory lacrimal glands excised 1 week earlier; 5 μL/eye single instillation (DIQUAS 3%, 3% pilocarpine, 0.05% delgocitinib); 15 minutes later; Mann-whitney U test
Experimental: as §1, §2, §3

[2] = system: lacrimal gland excised rats; assay: Tear volume increasing action by repeated ophthalmic administration, lacrimal gland excised rats (dry eye model); type: in vivo, Sprague-Dawley (SD) rats; settings: main lacrimal gland excised rats; each concentration (0.0125%, 0.05%, 0.2%), 5 μL/eye four times a day, four weeks; Steel test
Experimental: The tear secretion volume increasing action of delgocitinib was evaluated using lacrimal gland excised rats as a dry eye model. Delgocitinib was dissolved and stirred in PBS (Kohjin Bio Co., Ltd.) to prepare delgocitinib solutions (0.0125%, 0.05%, and 0.2%) at each concentration. Into normal male Sprague-Dawley (SD) rats (Japan SLC, Inc.) and SD rats whose main lacrimal gland had been excised 1 week earlier, the PBS or the delgocitinib solutions at each concentration were repeatedly instilled four times a day at a dose of 5 μL/eye. Four weeks after the start of ophthalmic instillation, the PBS or the delgocitinib solutions at each concentration were instilled at a dose of 5 μL/eye, anesthesia was induced using somnopentyl (Kyoritsu Seiyaku Corporation) 10 minutes later, and another 5 minutes later, a Schirmer's test paper was inserted into conjunctival sac on the corner of the eye. One minute later, the test paper was pulled out, and the length of the wet part of the test paper was measured, and this measured value was used as a tear volume.

[3] = system: lacrimal gland excised rats; assay: Action of ameliorating keratoconjunctival epithelial disorders by repeated ophthalmic administration, fluorescein staining score, lacrimal gland excised rats (dry eye model); type: in vivo, SD rats; settings: main lacrimal gland excised rats; each concentration (0.0125%, 0.05%, 0.2%), 5 μL/eye four times a day, four weeks; Steel test
Experimental: The action of ameliorating keratoconjunctival epithelial disorders of delgocitinib was evaluated using rats with lacrimal gland excision used as a dry eye model. Fluorescein sodium salt (Sigma-Aldrich Japan) was dissolved in OTSUKA NORMAL SALINE (Otsuka Pharmaceutical Factory, Inc.) to prepare a 10 mg/mL fluorescein staining solution. Delgocitinib was dissolved and stirred in PBS (Kohjin Bio Co., Ltd.) to prepare delgocitinib solutions at each concentration (0.0125%, 0.05%, and 0.2%). Into male SD rats (Japan SLC, Inc.) whose main lacrimal gland had been excised 1 week earlier, the PBS or the delgocitinib solutions at each concentration were repeatedly instilled four times a day at a dose of 5 μL/eye. Four weeks after the start of ophthalmic instillation, the 10 mg/mL fluorescein staining solution was instilled at a dose of 1 μL/eye. After induction of anesthesia with an ISOFLURANE inhalation solution (Pfizer Japan Inc.), a photograph was taken with a fluorescence microscope (Leica Microsystems). The cornea captured in the photograph was divided into four sections, the staining score of each section was scored on a scale of 0 to 5, and the total score of four sections was used as the corneal epithelial disorder score for the eye.

dry eye model of rats = settings: reported in Non Patent Literature 1; cited from earlier work

Row | Compound | tear volume (length of the wet part of Schirmer's test paper) compared with the PBS group (normal rabbits) | tear volume (length of the wet part of phenol red thread) compared with the PBS group (normal mice; 0.05% solution, Dunnett's test) | tear volume (length of the wet part of phenol red thread) compared with the PBS group (normal mice; 0.2% solution, Dunnett's test) | tear volume (length of the wet part of phenol red thread) compared with the PBS group (normal mice; each concentration (0.0125%, 0.05%, 0.2%)) | tear volume (length of the wet part of Schirmer's test paper) compared with the saline group (normal rats) | tear volume (length of the wet part of Schirmer's test paper) compared with the saline group [1] | tear volume (length of the wet part of Schirmer's test paper) compared with the PBS group [2] | corneal epithelial disorder score (fluorescein staining, total of four sections each 0 to 5) compared with the PBS group [3] | corneal epithelial disorders (dry eye model of rats) | secretion of tear (dry eye model of rats)
1 | C[C@H]1CN(C(=O)CC#N)[C@]12CCN(c1ncnc3[nH]ccc13)C2 [delgocitinib, 3-[(3S,4R)-3-methyl-6-(7H-pyrrolo[2,3-d]pyrimidin-4-yl)-1,6-diazaspiro[3.4]octan-1-yl]-3-oxopropanenitrile] | significantly increased | significant increase | significant increase | increased | significantly increased | significantly increased | significantly increased | significantly decreased |  | 
2 | O=c1ccn([C@@H]2O[C@H](COP(=O)(O)OP(=O)(O)OP(=O)(O)OP(=O)(O)OC[C@H]3O[C@@H](n4ccc(=O)[nH]c4=O)[C@H](O)[C@@H]3O)[C@@H](O)[C@H]2O)c(=O)[nH]1 [diquafosol sodium] |  |  |  |  |  |  |  |  | ameliorated corneal epithelial disorders | promoted secretion of tear
3 | CC[C@@H]1C(=O)OC[C@@H]1Cc1cncn1C [pilocarpine, pilocarpine hydrochloride] |  |  |  |  | significantly increased | significantly increased only in the DIQUAS ophthalmic solution 3% group and the 0.05% delgocitinib solution group |  |  |  | 
